Experimental data as given in article PMC5650372 (Oncotarget, 2017).
Read-outs that look alike come from different tables or passages of the source.

How the values were obtained:
ATR [1] = molecular target: T1, ATR (Homo sapiens, UniProt Q13535); assay: ATR 33P radioactive kinase assay (immunoprecipitated FLAG-ATR); format: biochemical
T1 construct: made in house; host or cells: HEK293 (293FT cells, Invitrogen R700-07), transient transfection, immunoprecipitation on Protein G Sepharose
Procedure: deficient cell growth in vitro […]
incorporated in the corresponding no inhibitor control mTOR, DNA-PK and PI3K-alpha assays were to determine percent inhibition. An IC50 value was then performed as reported previously. estimated.
(§1) ATM and ATR assay and IC50 determination Cellular NHEJ assay
(§2) HA-ATM and FLAG-ATR (HA-labeled ATM, and The experimental design is illustrated in FLAG-labeled ATR) were each transiently expressed in Supplementary Figure 4. Cal-51 breast cancer cells HEK293 cells (293FT cells, Invitrogen Cat: R700-07) were separately transfected with pEGFP plasmid (6085-using Lipofectamine as transfection reagent. Cells were 1, Clontech, Mountain View, CA) digested with either harvested 6 days post transfection and spun down to EcoRI (to measure NHEJ) or StuI (to measure transfection separate cells from media. Cells were then lysed using a efficiency) using a Amaxa cell line nuclearfector kit V lysis buffer (50 mM Tris buffer, (Tris(hydroxylmethyl)- (CCA-1003, Lonza). Immediately after the transfection, aminomethane, pH 7.5), 100 mM NaCl, 50 mM βGOP, the cells were treated with DMSO or compounds at 10% Glycerol, 0.5% Tween 20, 1 mM EDTA, 25 mM indicated concentrations for 24 hours and GFP-positive sodium fluoride (NaF), 20 nM microcystine, 2 mM cells were counted under a fluorescent microscope. […]

pDNA-PK S2056 = assay: Western blot of cell-free NHEJ reaction (MCF7 nuclear extract); format: biochemical, human
Procedure: (§3) Nuclear protein (10-20 μg) prepared above was pre-treated with compounds as indicated on ice for 15 minutes. Twenty-five nanograms of EcoRI-digested pBluescript DNA (Stratagene, La Jolla, CA) were then added and the mixture was adjusted to 20 μL final volume in NHEJ buffer (50 mM Hepes-KOH pH 8.0, 40 mM KOAc, 1 mM Mg(OAc)2, 1 mM ATP, 0.1 mg/mL BSA, and 1 mM DTT). After incubation at 25°C for 60 minutes, the reaction was terminated by incubation with 1 μg/mL RNase A for 10 minutes followed by treatment with 2 mg/mL Protease K in 0.5% SDS at 55°C for 30 minutes. The reactions were run onto 0.8% agarose and the gel was stained with Sybr Green (S756, Invitrogen, Carlsbad, CA). For Western blots, an aliquot of the same reaction mixture described above was subjected to SDS-PAGE, transferred to the PVDF membrane, and immunoblotted with indicated antibodies.

DNA-PK = DNA-PK (Homo sapiens, UniProt P78527); assay: DNA-PK enzyme assay; format: biochemical; conditions: average ± SEM; CC214-1 n=2
Procedure: (§4) mTOR, DNA-PK and PI3K-alpha assays were to determine percent inhibition. An IC50 value was then
(§5) performed as reported previously. estimated. […]

[2] = tested on: NCI-H1975 and SW1573 cells; assay: Clonogenic assay alone or with etoposide; format: cell-based, human; conditions: for combination with 6.8 μM etoposide on colony formation: 10 μM compound, 4 hours; for effect on cell survival, single agent: 4 hours treatment alone
Procedure: Media were changed every three days. Plates were incubated for a total of about two weeks then fixed and stained using the DIFF QUIK staining kit. Colonies were imaged and counted.

NHEJ activity = assay: Reconstituted cell-free NHEJ assay (MCF7 nuclear extract); format: biochemical, human
Procedure: MCF7 human breast cancer cells (5-10 x 10^7 each) were incubated in 5 pellet volumes of cold hypotonic buffer (10 mM Hepes-KOH, pH 7.5, 1.5 mM MgCl2, 5 mM KCl, and 0.5 mM DTT) for 20 minutes and were homogenized in a tight-fitting glass dounce homogenizer for 10-20 strokes. The nuclei were then collected by low-speed centrifugation and nuclear proteins were extracted by high-salt buffer (50 mM Tris-HCl, pH 7.5, 1 M KCl, 2 mM EDTA, 1 mM DTT, and protease inhibitors). The extracted nuclear proteins were dialyzed against 1 L of dialysis buffer (20 mM Tris-HCl, pH 8.0, 20% glycerol, 0.1 M KOAc, 0.5 mM EDTA, and 1 mM DTT) for 1 hour and were used for the in vitro NHEJ assay.
as §3

[3] = tested on: NHEJ in PC3 prostate cancer cells; assay: 384-well image-based cellular NHEJ assay; format: cell-based; conditions: Homo sapiens; PC3, n=3
Source text: as §1
as §2, with “microscope. NHEJ phenylmethylsulfonylfluoride (PMSF) and protease activity was calculated by the number of GFP-positive inhibitor cocktail) followed by sonication 3 times and a cells in cells transfected with pEGFP-EcoRI divided by final spin at 20,000 rpm for 30 minutes to generate a clear that in cells transfected with pEGFP-StuI, multiplied by lysate. To perform the immunoprecipitation, enzymes were 100.” for “microscope.”
(§6) or FLAG tags. Beads plus enzymes were then washed 3 developed. Different cell lines were transfected using times with lysis buffer and spun down at 1000 rpm for the procedure described above and subsequently seeded 1 minute. Beads plus enzymes were resuspended in lysis into 384-well plates at optimized density for individual buffer and kept at 4°C until assay. Assays for ATM and cell lines. Cells were then treated with compounds at ATR were conducted in a 33P radioactive assay format. increasing concentrations. GFP+ cells were imaged Assay buffer contained the following reagents: 1 mg/mL and quantitated using the IncuCyte (Essen Bioscience, GST-p53 (glutathione S-transferase–p53 fusion protein) Ann Arbor, MI). NHEJ activity was then normalized substrate (expressed in-house), 20 μg/mL calf thymus to the DMSO control and fitted to the Sigmoidal Dose-DNA activator (Sigma), 100 μg/mL BSA, 200 μM EGTA Response Model (IDBS XLFit Model 205; London, UK)

[4] = tested on: NHEJ in HCT116 colorectal cancer cells; assay: 384-well image-based cellular NHEJ assay; format: cell-based; conditions: Homo sapiens, HCT-116; HCT116, n=3
Source text: as §1
as §2, with “microscope. NHEJ phenylmethylsulfonylfluoride (PMSF) and protease activity was calculated by the number of GFP-positive inhibitor cocktail) followed by sonication 3 times and a cells in cells transfected with pEGFP-EcoRI divided by final spin at 20,000 rpm for 30 minutes to generate a clear that in cells transfected with pEGFP-StuI, multiplied by lysate. To perform the immunoprecipitation, enzymes were 100.” for “microscope.”
as §6

NHEJ in Cal-51 cells = assay: 384-well image-based cellular NHEJ assay; format: cell-based; conditions: Homo sapiens; Cal-51, n=3
Source text: as §1
as §2, with “microscope. NHEJ phenylmethylsulfonylfluoride (PMSF) and protease activity was calculated by the number of GFP-positive inhibitor cocktail) followed by sonication 3 times and a cells in cells transfected with pEGFP-EcoRI divided by final spin at 20,000 rpm for 30 minutes to generate a clear that in cells transfected with pEGFP-StuI, multiplied by lysate. To perform the immunoprecipitation, enzymes were 100.” for “microscope.”
as §6

[5] = tested on: NHEJ in MDA-MB-231 breast cancer cells; assay: 384-well image-based cellular NHEJ assay; format: cell-based; conditions: Homo sapiens; MDA-MB-231, n=3
Source text: as §1
as §2, with “microscope. NHEJ phenylmethylsulfonylfluoride (PMSF) and protease activity was calculated by the number of GFP-positive inhibitor cocktail) followed by sonication 3 times and a cells in cells transfected with pEGFP-EcoRI divided by final spin at 20,000 rpm for 30 minutes to generate a clear that in cells transfected with pEGFP-StuI, multiplied by lysate. To perform the immunoprecipitation, enzymes were 100.” for “microscope.”
as §6

mTOR kinase = mTOR kinase (Homo sapiens, UniProt P42345); assay: mTOR kinase enzyme assay; format: biochemical; conditions: average ± SEM
Procedure: as §4, §5

Rad51-foci in LoVo cells = assay: Rad51-foci immunofluorescence (homologous recombination); format: cell-based, human
pATM S1981 = assay: Western blot of cell-free NHEJ reaction (MCF7 nuclear extract); format: biochemical, human; conditions: MCF7 nuclear extract with linear dsDNA
Procedure: as §3

pChk2 T68 = assay: as above; format: biochemical, human; conditions: MCF7 nuclear extract, 0.05, 0.5 or 5 μM
Procedure: as §3

[6] = molecular target: T2, DNA-PKcs, XRCC4 and DNA ligase IV on DNA (Homo sapiens, UniProt P78527); assay: DNA end binding assay (MCF7 nuclear extract); format: biochemical; conditions: 5 μM, MCF7 nuclear extract, 10, 30, 60 minutes
T2 construct: endogenous in cells; host or cells: MCF7 nuclear extract
Source text: One kb of DNA fragment, including an EcoRI sequence in the middle, was amplified by PCR using pEGFP as a template and a pair of biotinylated EGFP primers (5′-biotin-[…]-3′ and 5′-biotin-[…]-3′: Valuegene, San Diego, CA). The amplified DNA fragment was cleaved by EcoRI to produce two 0.5 kb biotinylated DNA fragments, and was purified using the QIAquick PCR purification kit (Qiagen). […] An aliquot of the reaction was removed at each time point to separate the supernatant and the beads. The supernatant was subjected to SDS-PAGE and immunoblotting with indicated antibodies. The beads were washed twice with 250 μL of IP buffer (25 mM Hepes-KOH, pH 7.5, 100 mM NaCl, 20% glycerol, 5 mM EDTA, 1 mM DTT, 0.05% Nonidet P-40, 10 mM NaF, and protease inhibitor mixture) and subjected to SDS-PAGE and immunoblotting with indicated antibodies.

ATR [7] = molecular target: T1, ATR; set-up: method as in earlier work; conditions: Lit. reported value ref 3; cited from earlier work
ATM = molecular target: T3, ATM (Homo sapiens, UniProt Q13315); set-up: method as in earlier work; conditions: Lit. reported value ref 3; cited from earlier work
T3 construct: made in house; host or cells: HEK293 (293FT cells, Invitrogen R700-07), transient transfection, immunoprecipitation on Protein G Sepharose

[8] = concentration series (0.05 to 5 μM)

T1 sequence (Q13535 whole entry): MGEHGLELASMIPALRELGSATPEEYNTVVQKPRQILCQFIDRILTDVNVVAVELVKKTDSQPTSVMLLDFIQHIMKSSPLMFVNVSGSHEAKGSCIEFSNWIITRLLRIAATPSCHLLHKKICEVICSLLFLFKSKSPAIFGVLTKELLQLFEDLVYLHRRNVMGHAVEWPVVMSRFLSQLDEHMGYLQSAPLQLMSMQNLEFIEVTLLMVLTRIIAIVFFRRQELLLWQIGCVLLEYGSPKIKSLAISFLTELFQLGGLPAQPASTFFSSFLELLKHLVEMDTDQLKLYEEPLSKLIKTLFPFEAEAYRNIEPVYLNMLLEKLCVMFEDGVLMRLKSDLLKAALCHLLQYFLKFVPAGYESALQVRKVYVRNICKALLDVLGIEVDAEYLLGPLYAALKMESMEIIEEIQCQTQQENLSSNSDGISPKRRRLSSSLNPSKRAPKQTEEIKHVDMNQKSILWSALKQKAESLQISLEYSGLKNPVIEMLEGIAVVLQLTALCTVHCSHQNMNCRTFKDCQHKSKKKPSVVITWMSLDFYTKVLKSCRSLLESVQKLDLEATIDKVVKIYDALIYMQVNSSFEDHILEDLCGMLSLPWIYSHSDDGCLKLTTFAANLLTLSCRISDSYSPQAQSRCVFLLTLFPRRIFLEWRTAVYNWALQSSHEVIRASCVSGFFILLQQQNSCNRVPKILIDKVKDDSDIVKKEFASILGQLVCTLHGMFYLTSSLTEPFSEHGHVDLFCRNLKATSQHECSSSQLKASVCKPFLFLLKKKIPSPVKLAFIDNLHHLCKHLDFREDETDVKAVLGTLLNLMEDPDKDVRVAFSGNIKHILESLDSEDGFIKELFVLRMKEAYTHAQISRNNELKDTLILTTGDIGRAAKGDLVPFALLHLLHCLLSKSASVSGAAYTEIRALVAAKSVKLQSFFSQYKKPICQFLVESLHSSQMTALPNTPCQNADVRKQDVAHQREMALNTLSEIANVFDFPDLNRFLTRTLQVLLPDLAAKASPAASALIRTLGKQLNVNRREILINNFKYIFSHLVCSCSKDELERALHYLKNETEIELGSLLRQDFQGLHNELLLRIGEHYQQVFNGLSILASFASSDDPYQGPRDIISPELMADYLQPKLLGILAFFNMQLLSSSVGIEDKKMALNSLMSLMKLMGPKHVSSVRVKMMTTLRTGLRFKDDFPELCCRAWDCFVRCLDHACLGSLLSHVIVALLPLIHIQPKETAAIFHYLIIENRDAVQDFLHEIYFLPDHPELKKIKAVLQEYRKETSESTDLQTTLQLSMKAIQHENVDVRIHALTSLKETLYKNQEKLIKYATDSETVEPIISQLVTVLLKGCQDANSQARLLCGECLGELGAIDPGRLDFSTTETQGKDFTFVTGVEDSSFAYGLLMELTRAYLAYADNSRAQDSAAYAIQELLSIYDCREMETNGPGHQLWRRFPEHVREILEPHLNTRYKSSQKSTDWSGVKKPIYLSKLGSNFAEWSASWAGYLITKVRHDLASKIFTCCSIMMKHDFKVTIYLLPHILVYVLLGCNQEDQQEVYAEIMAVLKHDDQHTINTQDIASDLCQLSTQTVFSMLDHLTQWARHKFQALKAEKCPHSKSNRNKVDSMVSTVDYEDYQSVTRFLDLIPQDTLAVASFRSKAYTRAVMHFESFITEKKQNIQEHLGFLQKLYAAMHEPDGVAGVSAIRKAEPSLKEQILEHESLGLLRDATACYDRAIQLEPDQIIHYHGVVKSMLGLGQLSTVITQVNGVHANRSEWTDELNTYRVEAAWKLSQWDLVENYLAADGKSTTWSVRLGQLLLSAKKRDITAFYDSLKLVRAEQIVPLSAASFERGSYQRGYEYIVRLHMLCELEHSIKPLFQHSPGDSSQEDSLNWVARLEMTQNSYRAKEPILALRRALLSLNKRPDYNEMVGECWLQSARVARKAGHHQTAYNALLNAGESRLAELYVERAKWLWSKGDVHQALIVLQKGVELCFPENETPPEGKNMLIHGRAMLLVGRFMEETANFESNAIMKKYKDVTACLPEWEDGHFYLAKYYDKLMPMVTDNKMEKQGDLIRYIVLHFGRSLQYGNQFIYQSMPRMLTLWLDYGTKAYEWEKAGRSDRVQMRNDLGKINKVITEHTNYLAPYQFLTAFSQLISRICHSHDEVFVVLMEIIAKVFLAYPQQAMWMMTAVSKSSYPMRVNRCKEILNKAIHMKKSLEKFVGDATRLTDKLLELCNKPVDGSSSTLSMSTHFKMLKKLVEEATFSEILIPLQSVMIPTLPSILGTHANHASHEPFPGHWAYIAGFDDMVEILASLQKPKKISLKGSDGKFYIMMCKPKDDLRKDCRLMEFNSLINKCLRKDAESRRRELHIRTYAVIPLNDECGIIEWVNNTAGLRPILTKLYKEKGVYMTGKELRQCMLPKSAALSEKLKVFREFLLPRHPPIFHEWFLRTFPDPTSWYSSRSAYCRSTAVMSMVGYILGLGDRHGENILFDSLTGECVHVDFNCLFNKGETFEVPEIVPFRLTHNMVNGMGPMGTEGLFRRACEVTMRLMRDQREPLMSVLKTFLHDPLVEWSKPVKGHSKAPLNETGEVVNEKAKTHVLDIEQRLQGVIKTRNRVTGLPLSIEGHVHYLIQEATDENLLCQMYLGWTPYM

| SMILES | inhibition of pDNA-PK S2056, cell-free (pDNA-PK S2056) | IC50 (DNA-PK) [µM] | combination with 6.8 μM etoposide on colony formation [2] | effect on cell survival, single agent [2] | inhibition of NHEJ activity, cell-free (NHEJ activity; [8]) | IC50 [3] [nM] | IC50 [4] [nM] | IC50 (NHEJ in Cal-51 cells) [nM] | IC50 [5] [nM] | IC50 (mTOR kinase) [µM] | inhibition of pATM S1981, cell-free (pATM S1981) | inhibition of pChk2 T68, cell-free (pChk2 T68) | also measured |
| --- | --- | --- | --- | --- | --- | --- | --- | --- | --- | --- | --- | --- | --- |
| CC(C)(O)c1ccc(-c2cnc3c(n2)N(CC2CCOCC2)CC(=O)N3)cn1 [CC214-2, 6-(6-(2-hydroxypropan-2-yl)pyridin-3-yl)-4-((tetrahydro-2H-pyran-4-yl)methyl)-3,4-dihydropyrazino[2,3-b]pyrazin-2(1H)-one] | did not inhibit | > 10 | synergy was not observed | minimal effect on cell survival | not changed | > 10000 | > 10000 | > 10000 | > 10000 | – | – | – | IC50 (ATR [1]): > 3000 nM |
| COc1cc([C@@H]2c3cc4c(cc3[C@@H](O[C@@H]3O[C@@H]5CO[C@@H](C)O[C@H]5[C@H](O)[C@H]3O)[C@H]3COC(=O)[C@H]23)OCO4)cc(OC)c1O [etoposide] | – | – | – | substantially impairs survival | – | – | – | – | – | – | – | – | – |
| O=c1[nH]c2ncc(-c3ccc(-c4nc[nH]n4)cc3)nc2n1CCC1CCOCC1 [CC214-1, 6-(4-(1H-1,2,4-triazol-3-yl)phenyl)-1-(2-(tetrahydro-2H-pyran-4-yl)ethyl)-1,3-dihydro-2H-imidazo[4,5-b]pyrazin-2-one] | to a smaller extent | 0.141 | – | – | – | – | – | – | – | 0.002 ± 0.0002 | – | – | inhibition of NHEJ activity, cell-free (NHEJ activity; 5 μM): Minimal inhibition |
| COc1cccc2c1C(=O)c1c(O)c3c(c(O)c1C2=O)C[C@@](O)(C(=O)CO)C[C@@H]3O[C@H]1C[C@H](N)[C@H](O)[C@H](C)O1 [doxorubicin] | – | – | – | – | – | – | – | – | – | – | – | – | Rad51-foci positive nuclei (HR efficiency) (Rad51-foci in LoVo cells; 0.1 μM doxorubicin only): 24% |
| O=c1cc(-c2cccc3c2Sc2ccccc2S3)oc(N2CCOCC2)c1 [KU55933, 2-(4-morpholinyl)-6-(1-thianthrenyl)-4H-pyran-4-one] | not DNA-PK phosphorylation | – | – | – | did not inhibit | – | – | – | – | – | efficiently inhibited | concentration-dependent inhibition | – |
| O=c1cc(N2CCOCC2)oc2c(-c3cccc4c3sc3ccccc34)cccc12 [NU7441, 8-(4-dibenzothienyl)-2-(4-morpholinyl)-4H-1-benzopyran-4-one] | also inhibited | – | synergistic effect | minimal effect on cell survival | Inhibition of NHEJ was also observed | 1030 ± 170 | 6220 ± 6760 | 2560 ± 840 | 630 ± 80 | 1.64 ± 0.2 | reduction | also inhibited | DNA-PKcs, XRCC4 and DNA ligase IV bound to DNA over time [6]: retained from 10 minutes through the end of the reaction at 60 minutes; Rad51-foci positive nuclei (HR efficiency) (Rad51-foci in LoVo cells; 5 μM compound with 0.1 μM doxorubicin): 10.3%; IC50 (ATR [7]): > 100 µM; IC50 (ATM): > 100 µM |
